Source: patent US4826982A, “Quinolonecarboxylic acid derivatives” (Kyorin Pharmaceutical Co., Ltd., priority 1985, dated 1989)
≈ marks a conversion by molar mass, not a printed value. Where two headings read alike, the source gives them in different places.

Key:
[1] = test system: P. aeruginosa IFO 12689; experiment: microbe, parasite or virus in culture; settings: Pseudomonas aeruginosa, IFO12689
[2] = test system: Yersinia enterocolitica IID 981; experiment: microbe, parasite or virus in culture; format: cell-based; settings: IID981
[3] = test system: Bacillus subtilis PCI 219; experiment: Antibacterial spectrum, MIC by method recommended by Japan Society of Chemotherapy; format: cell-based; settings: PCI219, 10^6 cells/ml, Gram +, standard strain
Description: (§1) In vitro antibacterial activity (standard strains)
(§2) Organism (10^6 cells/ml)

[4] = test system: Clostridium perfringens KYA 13123; experiment: microbe, parasite or virus in culture; settings: KYA13123
[5] = test system: Eubacterium lentum GAI 5242; experiment: microbe, parasite or virus in culture; settings: Eggerthella lenta, GAI5242
[6] = test system: Pst. micros UPI 5464-1; experiment: Antibacterial spectrum, MIC; settings: Parvimonas micra, UPI54641
[7] = test system: Propionibacterium acens 11828; experiment: Antibacterial spectrum, MIC; format: cell-based
[8] = test system: Morganella morganii IID 602; experiment: Antibacterial spectrum, MIC; format: cell-based; settings: IID602
[9] = test system: Peptococcus magnus KY 017; experiment: microbe, parasite or virus in culture; settings: Finegoldia magna, KY017
[10] = test system: Proteus vulgaris IFO 3167; experiment: Antibacterial spectrum, MIC; format: cell-based; settings: IFO3167, 10^6 cells/ml, Gram -, standard strain
Description: as §1, §2

[11] = test system: Shigella sonnei IID 969; experiment: Antibacterial spectrum, MIC; format: cell-based; settings: IID969, 10^6 cells/ml, Gram -, standard strain
Description: as §1, §2

[12] = test system: B. distasonis 8503; experiment: Antibacterial spectrum, MIC; format: cell-based; settings: Parabacteroides distasonis, 10^6 cells/ml, Gram -, standard strain
Description: as §1, §2

[13] = test system: Fusobacterium necrophorum S-45; experiment: Antibacterial spectrum, MIC; format: cell-based; settings: S45, 10^6 cells/ml, Gram -, standard strain
Description: as §1, §2

[14] = test system: Enterobacter cloacae IID 977; experiment: Antibacterial spectrum, MIC; format: cell-based; settings: IID977, 10^6 cells/ml, Gram -, standard strain
Description: as §1, §2

[15] = test system: S. epidermidis IID 866; experiment: Antibacterial spectrum, MIC; format: cell-based; settings: Staphylococcus epidermidis, IID866; 10^6 cells/ml; Gram +; standard strain
Description: as §1, §2

[16] = test system: Escherichia coli NIHJ JC-2; experiment: Antibacterial spectrum, MIC; format: cell-based; settings: NIHJJC2, 10^6 cells/ml, Gram -, standard strain
Description: as §1, §2

[17] = test system: B. fragilis 0558; experiment: Antibacterial spectrum, MIC; format: cell-based; settings: Bacteroides fragilis, 10^6 cells/ml, Gram -, standard strain
Description: as §1, §2

[18] = test system: S. pneumoniae IID 552; experiment: Antibacterial spectrum, MIC; format: cell-based; settings: Streptococcus pneumoniae, IID552; 10^6 cells/ml; Gram +; standard strain
Description: as §1, §2

[19] = test system: B. fragilis 25285; experiment: Antibacterial spectrum, MIC; format: cell-based; settings: Bacteroides fragilis, 10^6 cells/ml, Gram -, standard strain
Description: as §1, §2

[20] = test system: Staphylococcus aureus 209 P; experiment: Antibacterial spectrum, MIC; format: cell-based; settings: 10^6 cells/ml, Gram +, standard strain
Description: as §1, §2

[21] = test system: P. mirabilis IID 994; experiment: Antibacterial spectrum, MIC; format: cell-based; settings: Proteus mirabilis, IID994; 10^6 cells/ml; Gram -; standard strain
Description: as §1, §2

[22] = test system: S. aureus IID 670 (Terajima); experiment: Antibacterial spectrum, MIC; format: cell-based; settings: Staphylococcus aureus, IID670; 10^6 cells/ml; Gram +; standard strain
Description: as §1, §2

[23] = test system: Streptococcus pyogenes (S-8); experiment: Antibacterial spectrum, MIC; format: cell-based; settings: 10^6 cells/ml, Gram +, standard strain
Description: as §1, §2

[24] = test system: Klebsiella pneumoniae KY(GN)6445; experiment: Antibacterial spectrum, MIC; format: cell-based; settings: 10^6 cells/ml, Gram -, standard strain
Description: as §1, §2

[25] = test system: E. faecalis IID 682; experiment: Antibacterial spectrum, MIC; format: cell-based; settings: Enterococcus faecalis, IID682; 10^6 cells/ml; Gram +; standard strain
Description: as §1, §2

[26] = test system: Salmonella enteritidis IID 604; experiment: Antibacterial spectrum, MIC; format: cell-based; settings: Salmonella enterica; 10^6 cells/ml; Gram -; standard strain
Description: as §1, §2

[27] = test system: Citrobacter freundii IID 976; experiment: Antibacterial spectrum, MIC; format: cell-based; settings: IID976, 10^6 cells/ml, Gram -, standard strain
Description: as §1, §2

[28] = test system: Serratia marcescens IID 618; experiment: Antibacterial spectrum, MIC; format: cell-based; settings: IID618, 10^6 cells/ml, Gram -, standard strain
Description: as §1, §2

[29] = test system: K. pneumoniae 1-220S; experiment: Antibacterial spectrum, MIC; format: cell-based; settings: Klebsiella pneumoniae, 1220S; 10^6 cells/ml; Gram -; standard strain
Description: as §1, §2

[30] = test system: Acinetobacter anitratus IID 876; experiment: Antibacterial spectrum, MIC; format: cell-based; settings: Acinetobacter calcoaceticus, IID876; 10^6 cells/ml; Gram -; standard strain
Description: as §1, §2

[31] = test system: Alcaligenes faecalis 0114002; experiment: Antibacterial spectrum, MIC; format: cell-based; settings: 10^6 cells/ml, Gram -, standard strain
Description: as §1, §2

[32] = test system: E. coli ATCC l0536; experiment: Antibacterial spectrum, MIC; format: cell-based; settings: Escherichia coli, ATCCL0536
Description: as §1, §2

[33] = test system: Peptostreptococcus anaerobius KYA 27337; experiment: Antibacterial spectrum, MIC; format: cell-based
[34] = test system: B. thetaiotaomicron (0661); experiment: Antibacterial spectrum, MIC; format: cell-based; settings: Bacteroides thetaiotaomicron
[35] = test system: C. ramosum; experiment: Antibacterial spectrum, MIC; format: cell-based; settings: Thomasclavelia ramosa
[36] = test system: Veillonella parvula KYA 10790; experiment: Antibacterial spectrum, MIC; settings: KYA10790
[37] = test system: Bacteroides fragilis GM 7000; experiment: Antibacterial spectrum, MIC; settings: GM7000
[38] = test system: Pseudomonas aeruginosa V-1; experiment: Antibacterial spectrum, MIC; settings: V1
[39] = test system: S. pyogenes IID 692; experiment: microbe, parasite or virus in culture; settings: Streptococcus pyogenes, IID692
[40] = test system: F. varium KYA 8501; experiment: Antibacterial spectrum, MIC; format: cell-based; settings: Fusobacterium varium, KYA8501
[41] = 10^6 cells/ml, Gram +, standard strain, read-out: MIC
[42] = 10^6 cells/ml, Gram -, standard strain, read-out: MIC

SMILES	MIC [1] [mg/L]	MIC [2] [mg/L]	MIC [3] [mg/L]	MIC [4] [mg/L]	MIC [5] [mg/L]	MIC [6] [mg/L]	MIC [8] [mg/L]	MIC [11] [mg/L]	MIC [12] [mg/L]	MIC [15] [mg/L]	MIC [16] [mg/L]	MIC [17] [mg/L]	MIC [19] [mg/L]	MIC [20] [mg/L]	MIC [22] [mg/L]	MIC [29] [mg/L]	MIC [30] [mg/L]	MIC [36] [mg/L]	MIC [37] [mg/L]	MIC [38] [mg/L]	further results
CC1CN(c2c(F)cc3c(=O)c(C(=O)O)cn(C4CC4)c3c2Br)CCN1.Cl (centres unmarked) [Exp. 18, 8-Bromo-1-cyclopropyl-6-fluoro-1,4-dihydro-7-(3-methyl-1-piperazinyl)-4-oxo-3-quinolinecarboxylic acid hydrochloride]	3.13	0.1	0.05	0.78	0.39	0.39	0.1	0.025	1.56	0.2	0.0125	0.39	0.39	0.1	0.2	0.1	0.05	0.39	0.78	0.39	MIC [7, 41]: 6.25 mg/L; MIC [9]: 0.39 mg/L; MIC [10]: 0.025 mg/L; MIC [13]: 0.78 mg/L; MIC [14]: 0.1 mg/L; MIC [18]: 0.78 mg/L; MIC [21]: 0.025 mg/L; MIC [23]: 0.78 mg/L; MIC [24]: 0.05 mg/L; MIC [25]: 0.78 mg/L; MIC [26]: 0.05 mg/L; MIC [27]: 0.05 mg/L; MIC [28]: 0.1 mg/L; MIC [31]: 0.39 mg/L; MIC [32]: 0.025 mg/L; MIC ([33]; KYA27337, 10^6 cells/ml, Gram +, standard strain, read-out: MIC): 1.56 mg/L; MIC [34, 42]: 1.56 mg/L; MIC [35, 41]: 6.25 mg/L; MIC [39]: 0.78 mg/L; MIC [40]: 3.13 mg/L
O=C(O)c1cn(C2CC2)c2c(Br)c(N3CCNCC3)c(F)cc2c1=O [Exp. 17, 8-Bromo-1-cyclopropyl-6-fluoro-1,4-dihydro-4-oxo-7-(1-piperazinyl)-3-quinolinecarboxylic acid]	0.78 (≈ 1.9 µM)	0.05 (≈ 0.122 µM)	0.05 (≈ 0.122 µM)	0.78 (≈ 1.9 µM)	0.39 (≈ 0.951 µM)	0.39 (≈ 0.951 µM)	0.05 (≈ 0.122 µM)	0.025 (≈ 0.0609 µM)	1.56 (≈ 3.8 µM)	0.2 (≈ 0.488 µM)	0.0125 (≈ 0.0305 µM)	0.78 (≈ 1.9 µM)	0.78 (≈ 1.9 µM)	0.1 (≈ 0.244 µM)	0.2 (≈ 0.488 µM)	0.05 (≈ 0.122 µM)	0.1 (≈ 0.244 µM)	0.39 (≈ 0.951 µM)	0.78 (≈ 1.9 µM)	0.39 (≈ 0.951 µM)	MIC [7]: 6.25 mg/L (≈ 15.2 µM); MIC [9]: 0.39 mg/L (≈ 0.951 µM); MIC [10]: 0.025 mg/L (≈ 0.0609 µM); MIC [13]: 0.78 mg/L (≈ 1.9 µM); MIC [14]: 0.05 mg/L (≈ 0.122 µM); MIC [18]: 0.78 mg/L (≈ 1.9 µM); MIC [21]: 0.025 mg/L (≈ 0.0609 µM); MIC [23]: 0.39 mg/L (≈ 0.951 µM); MIC [24]: 0.025 mg/L (≈ 0.0609 µM); MIC [25]: 0.39 mg/L (≈ 0.951 µM); MIC [26]: 0.025 mg/L (≈ 0.0609 µM); MIC [27]: 0.025 mg/L (≈ 0.0609 µM); MIC [28]: 0.05 mg/L (≈ 0.122 µM); MIC [31]: 0.2 mg/L (≈ 0.488 µM); MIC [32]: 0.025 mg/L (≈ 0.0609 µM); MIC ([33]; KYA27337): 1.56 mg/L (≈ 3.8 µM); MIC [34]: 1.56 mg/L (≈ 3.8 µM); MIC [35]: 6.25 mg/L (≈ 15.2 µM); MIC [39]: 0.78 mg/L (≈ 1.9 µM); MIC [40]: 3.13 mg/L (≈ 7.63 µM)
O=C(O)c1cn(C2CC2)c2cc(N3CCNCC3)c(F)cc2c1=O [CPFX, ciprofloxacin, reference compound]	–	–	–	–	–	0.2 (≈ 0.604 µM)	–	0.0063 (≈ 0.019 µM)	6.25 (≈ 18.9 µM)	0.2 (≈ 0.604 µM)	≤ 0.0063	3.13 (≈ 9.45 µM)	6.25 (≈ 18.9 µM)	0.2 (≈ 0.604 µM)	0.2 (≈ 0.604 µM)	0.05 (≈ 0.151 µM)	0.2 (≈ 0.604 µM)	0.2 (≈ 0.604 µM)	6.25 (≈ 18.9 µM)	0.05 (≈ 0.151 µM)	–
CC1COc2c(N3CCN(C)CC3)c(F)cc3c(=O)c(C(=O)O)cn1c23 (centres unmarked) [OFLX, ofloxacin, reference compound]	3.13 (≈ 8.66 µM)	0.2 (≈ 0.553 µM)	0.1 (≈ 0.277 µM)	0.78 (≈ 2.16 µM)	0.78 (≈ 2.16 µM)	0.78 (≈ 2.16 µM)	0.1 (≈ 0.277 µM)	0.05 (≈ 0.138 µM)	6.25 (≈ 17.3 µM)	0.39 (≈ 1.08 µM)	≤ 0.025	1.56 (≈ 4.32 µM)	1.56 (≈ 4.32 µM)	0.2 (≈ 0.553 µM)	0.39 (≈ 1.08 µM)	0.2 (≈ 0.553 µM)	0.2 (≈ 0.553 µM)	0.78 (≈ 2.16 µM)	3.13 (≈ 8.66 µM)	0.39 (≈ 1.08 µM)	MIC [7]: 12.5 mg/L (≈ 34.6 µM); MIC [9]: 0.78 mg/L (≈ 2.16 µM); MIC [10]: 0.05 mg/L (≈ 0.138 µM); MIC [13]: 1.56 mg/L (≈ 4.32 µM); MIC [14]: 0.1 mg/L (≈ 0.277 µM); MIC [18]: 1.56 mg/L (≈ 4.32 µM); MIC [21]: 0.05 mg/L (≈ 0.138 µM); MIC [23]: 1.56 mg/L (≈ 4.32 µM); MIC [24]: 0.05 mg/L (≈ 0.138 µM); MIC [25]: 1.56 mg/L (≈ 4.32 µM); MIC [26]: 0.1 mg/L (≈ 0.277 µM); MIC [27]: 0.1 mg/L (≈ 0.277 µM); MIC [28]: 0.1 mg/L (≈ 0.277 µM); MIC [31]: 0.78 mg/L (≈ 2.16 µM); MIC [32]: 0.05 mg/L (≈ 0.138 µM); MIC ([33]; KYA27337): 3.13 mg/L (≈ 8.66 µM); MIC [34, 42]: 6.25 mg/L (≈ 17.3 µM); MIC [35, 41]: 12.5 mg/L (≈ 34.6 µM); MIC [39]: 3.13 mg/L (≈ 8.66 µM); MIC [40, 42]: 12.5 mg/L (≈ 34.6 µM)
